Experimental data published in patent publication US20100075852A1, “HERBICIDE COMBINATION COMPRISING DIMETHOXYTRIAZINYL-SUBSTITUTED DIFLUOROMETHANESULFONYLANILIDES” (BAYER CROPSCIENCE AG, priority 2008, published 2010).
Like-named read-outs stand apart in the source and are kept apart here.

Assays:
Test in all cases: Post-emergence action against weeds, greenhouse pot test, visual scoring
Assay type in all cases: in vivo
[1] = tested on: Setaria viridis (SETVI); conditions: 504 h, SETVI, 21 DAT, read-out: % activity found
Description: (§1) Seeds or rhizome pieces of mono- and dicotyledonous harmful and useful plants were placed in peat pots (diameter 4 cm) filled with sandy loam and then covered with soil. The pots were kept in a greenhouse under optimum conditions. In addition, harmful plants encountered in paddy rice cultivation were cultivated in pots with a water level 2 cm above the soil surface.
(§2) About three weeks after the start of the cultivation, the test plants were treated at the 2- to 3-leaf stage. The herbicides, formulated as powder or liquid concentrates, were, either alone or in the combinations according to the invention, sprayed in various dosages on to the green parts of the plants using an application rate of 600 l of water/ha (converted). For further cultivation of the plants, the pots were then again kept under optimum conditions in a greenhouse.
(§3) The visual scoring of the herbicidal effects was carried out in intervals up to 21 days after the treatment. Scoring was carried out in percent in comparison to the untreated control plants. 0%=no herbicidal activity, 100%=complete herbicidal activity=complete kill.
(§4) The percentages from the treatments with the herbicides alone (=individual application) and with the combinations according to the invention (=mixtures) were employed to calculate interactions using the method of Colby. When the observed efficacies of the mixtures exceed the formal sum of the values of the tests with individual applications, they also exceed the expected value according to Colby, which is calculated using the formula below (cf. S. R. Colby; in Weeds 15 (1967) pp. 20 to 22):
(§5) • A, B=activity of components A and B in percent at a dosage of a and b g of ai/ha (=gramm of active substance per hectare), respectively. • E=expected value in % at a dosage of a+b g of ai/ha.

[2] = tested on: Alopecurus myosuroides (ALOMY); conditions: ALOMY, read-out: % activity found; for inhibition at 4 g/ha: 4 g of ai/ha alone; for inhibition at 12 g/ha: 12 g of ai/ha alone
Description: as §1, §2, §3, §4, §5

[3] = tested on: Oryza sativa (ORYSA); conditions: ORYSA, read-out: % activity found; for inhibition at 4 g/ha: 4 g of ai/ha alone; for inhibition at 12 g/ha: 12 g of ai/ha alone
Description: as §1, §2, §3, §4, §5

[4] = tested on: Matricaria inodora (MATIN); conditions: MATIN, 21 DAT
Description: as §1, §2, §3
(§6) The percentages from the treatments with the herbicides alone (=individual application) and with the combinations according to the invention (=mixtures) were employed to calculate interactions using the method of Colby.
as §5

[5] = tested on: Veronica persica (VERPE); conditions: 21 DAT, rate (5) A-1 12
Description: as §1, §2, §3, §6, §5

[6] = tested on: Fallopia (ex Polygonum) convolvulus (POLCO); conditions: POLCO, 21 DAT
Description: as §1, §2, §3, §6, §5

[7] = tested on: Zea mays (ZEAMX); conditions: ZEAMX; for inhibition at 4 g/ha / inhibition at 12 g/ha: Zea mays, post-emergence, read-out: % activity found; for inhibition at 4 g/ha: 4 g of ai/ha alone; for inhibition at 12 g/ha: 12 g of ai/ha alone
Description: as §1, §2, §3, §6, §5

[8] = tested on: Viola tricolor (VIOTR); conditions: for (7) activity found: rate (5) A-1 12
Description: as §1, §2, §3, §6, §5

[9] = tested on: Lolium multiflorum (LOLMU); conditions: LOLMU; for inhibition at 4 g/ha / inhibition at 12 g/ha: Lolium multiflorum, post-emergence, read-out: % activity found; for inhibition at 4 g/ha: 4 g of ai/ha alone; for inhibition at 12 g/ha: 12 g of ai/ha alone
Description: as §1, §2, §3, §6, §5

[10] = tested on: Pharbitis purpurea (PHBPU); conditions: 21 DAT
Description: as §1, §2, §3, §6, §5

[11] = tested on: Stellaria media (STEME); conditions: 10 DAT
Description: as §1, §2, §3, §6, §5

[12] = tested on: Triticum aestivum (TRZAS); conditions: for (7) activity found: rate (5) A-1 12; for inhibition at 4 g/ha / inhibition at 12 g/ha: Triticum aestivum, post-emergence, read-out: % activity found; for inhibition at 4 g/ha: 4 g of ai/ha alone; for inhibition at 12 g/ha: 12 g of ai/ha alone
Description: as §1, §2, §3, §6, §5

[13] = tested on: Cyperus esculentus (CYPES); conditions: CYPES, 21 DAT
Description: as §1, §2, §3, §6, §5

[14] = tested on: Avena fatua (AVEFA); conditions: AVEFA; for inhibition at 4 g/ha / inhibition at 12 g/ha: Avena fatua, post-emergence, read-out: % activity found; for inhibition at 4 g/ha: 4 g of ai/ha alone; for inhibition at 12 g/ha: 12 g of ai/ha alone
Description: as §1, §2, §3, §6, §5

[15] = tested on: Abuthilon theophrasti (ABUTH); conditions: 21 DAT, rate (5) A-1 12
Description: as §1, §2, §3, §6, §5

For `COc1nc(OC)nc(C(=O)c2cccc(F)c2N(C)S(=O)(=O)C(F)F)n1` [A-1], the inhibition at 4 g/ha ([1]; 4 g of ai/ha alone) was 0%, the inhibition at 12 g/ha ([1]; 12 g of ai/ha alone) was 20% and the inhibition at 4 g/ha ([2]; 240 h, 10 DAT) was 40%. For the same compound, the inhibition at 12 g/ha ([2]; 240 h, 10 DAT) was 40%, the inhibition at 4 g/ha ([2]; 504 h, 21 DAT) was 40% and the inhibition at 12 g/ha ([2]; 504 h, 21 DAT) was 50%. The inhibition at 4 g/ha ([3]; 240 h, 10 DAT) was 10%, the inhibition at 12 g/ha ([3]; 240 h, 10 DAT) was 10% and the inhibition at 4 g/ha ([3]; 504 h, 21 DAT) was 0%. The inhibition at 12 g/ha ([3]; 504 h, 21 DAT) was 10%, the “(7) activity found” value ([4]; rate (5) A-1 4) was 50% and the “(7) activity found” value ([4]; rate (5) A-1 12) was 60%. For the same compound, the inhibition at 4 g/ha ([4]; Tripleurospermum inodorum, post-emergence, 504 h, 4 g of ai/ha alone, read-out: % activity found) was 50%, the inhibition at 12 g/ha ([4]; Tripleurospermum inodorum, post-emergence, 504 h, 12 g of ai/ha alone, read-out: % activity found) was 60% and the “(7) activity found” value [5] was 40%. For the same compound, the inhibition at 4 g/ha ([6]; Fallopia convolvulus, post-emergence, 504 h, 4 g of ai/ha alone, read-out: % activity found) was 75%, the inhibition at 12 g/ha ([6]; Fallopia convolvulus, post-emergence, 504 h, 12 g of ai/ha alone, read-out: % activity found) was 70% and the “(7) activity found” value ([6]; rate (5) A-1 4) was 75%. For the same compound, the “(7) activity found” value ([6]; rate (5) A-1 12) was 70%, the “(7) activity found” value ([7]; 10 DAT, rate (5) A-1 4) was 0% and the “(7) activity found” value ([7]; 10 DAT, rate (5) A-1 12) was 0%. The “(7) activity found” value ([7]; 21 DAT, rate (5) A-1 4) was 0%, the “(7) activity found” value ([7]; 21 DAT, rate (5) A-1 4 (Table 80)) was 0% and the “(7) activity found” value ([7]; 21 DAT, rate (5) A-1 12) was 0%. For the same compound, the “(7) activity found” value ([7]; 21 DAT, rate (5) A-1 12 (Table 80)) was 0%, the inhibition at 4 g/ha ([7]; 240 h, 10 DAT) was 0% and the inhibition at 12 g/ha ([7]; 240 h, 10 DAT) was 0%. For the same compound, the inhibition at 4 g/ha ([7]; 504 h, 21 DAT) was 0%, the inhibition at 12 g/ha ([7]; 504 h, 21 DAT) was 0% and the “(7) activity found” value ([8]; 10 DAT) was 20%. The “(7) activity found” value ([8]; 21 DAT) was 10%, the inhibition at 4 g/ha ([8]; Viola tricolor, post-emergence, 504 h, 21 DAT, 4 g of ai/ha alone, read-out: % activity found) was 0% and the inhibition at 12 g/ha ([8]; Viola tricolor, post-emergence, 504 h, 21 DAT, 12 g of ai/ha alone, read-out: % activity found) was 10%. The “(7) activity found” value ([9]; 10 DAT, rate (5) A-1 4) was 0%, the “(7) activity found” value ([9]; 10 DAT, rate (5) A-1 12) was 10% and the inhibition at 4 g/ha ([9]; 240 h, 10 DAT) was 0%. The inhibition at 12 g/ha ([9]; 240 h, 10 DAT) was 10%, the inhibition at 4 g/ha ([9]; 504 h, 21 DAT) was 0% and the inhibition at 12 g/ha ([9]; 504 h, 21 DAT) was 10%. The “(7) activity found” value ([10]; rate (5) A-1 4) was 60%, the “(7) activity found” value ([10]; rate (5) A-1 12) was 65% and the “(7) activity found” value ([11]; rate (5) A-1 4) was 70%. The “(7) activity found” value ([11]; rate (5) A-1 12) was 70%, the “(7) activity found” value ([12]; 10 DAT) was 0% and the “(7) activity found” value ([12]; 21 DAT) was 0%. The inhibition at 4 g/ha ([12]; 240 h, 10 DAT) was 0%, the inhibition at 12 g/ha ([12]; 240 h, 10 DAT) was 0% and the inhibition at 4 g/ha ([12]; 504 h, 21 DAT) was 0%. The inhibition at 12 g/ha ([12]; 504 h, 21 DAT) was 0%, the “(7) activity found” value ([13]; rate (5) A-1 4) was 80% and the “(7) activity found” value ([13]; rate (5) A-1 12) was 80%. The “(7) activity found” value ([13]; rate (5) A-1 12 (Table 85)) was 80%, the inhibition at 4 g/ha ([13]; Cyperus esculentus, post-emergence, 504 h, 4 g of ai/ha alone, read-out: % activity found) was 80% and the inhibition at 12 g/ha ([13]; Cyperus esculentus, post-emergence, 504 h, 12 g of ai/ha alone, read-out: % activity found) was 80%. The “(7) activity found” value ([14]; 21 DAT, rate (5) A-1 4) was 10%, the “(7) activity found” value ([14]; 21 DAT, rate (5) A-1 12) was 30% and the inhibition at 4 g/ha ([14]; 240 h, 10 DAT) was 40%. It also gave an inhibition at 12 g/ha ([14]; 240 h, 10 DAT) of 50%, an inhibition at 4 g/ha ([14]; 504 h, 21 DAT) of 10% and an inhibition at 12 g/ha ([14]; 504 h, 21 DAT) of 30%. For the same compound, the “(7) activity found” value [15] was 85%.
